The text below walks through data of publication PMC11040665, “Aminothiazolone Inhibitors Disrupt the Protein–RNA Interaction of METTL16 and Modulate the m^6A RNA Modification” (JACS Au, 2024).

One assay addresses T1, METTL16 MTD (1-291) (Homo sapiens, UniProt Q86W50).
T1 construct: METTL16 MTD (1–291) was subcloned to pOPINB plasmid; His tag followed by HRV 3C cleavage site (N, cleaved yes); made in house; host or cells: E. coli Rosetta (DE3)
T1 sequence (Q86W50 1-291): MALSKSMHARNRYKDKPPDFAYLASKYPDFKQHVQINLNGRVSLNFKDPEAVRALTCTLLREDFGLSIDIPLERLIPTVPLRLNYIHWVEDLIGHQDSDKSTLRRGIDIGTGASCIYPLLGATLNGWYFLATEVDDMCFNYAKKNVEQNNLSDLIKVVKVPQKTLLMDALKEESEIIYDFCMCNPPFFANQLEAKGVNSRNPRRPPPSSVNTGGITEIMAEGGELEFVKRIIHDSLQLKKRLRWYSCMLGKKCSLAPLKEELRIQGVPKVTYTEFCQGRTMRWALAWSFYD
As to the kind of experiment: Isothermal titration calorimetry (ITC). In kind it is binding. The settings on record: 700 μM METTL16 (1-291) titrated into 50 μM compound, 25 °C. On the procedure: ITC was performed by using the MicroCal PEAQ-ITC system (Malvern) at 25 °C. METTL16 MTD protein was directly used after purification. 700 μM protein in SEC buffer (20 mM pH 7.5, 200 mM NaCl, 0.5 mM TCEP,2% v/v glycerol) supplemented with 0.5% DMSO were loaded to the syringe, 50 μM compound in SEC buffer (final 0.5%DMSO) was loaded to the cell, both samples were adjusted to 25 °C and degassed before loading. The experiment was carried out using the reference power of 10, with 19 injections. Data were analyzed using the MicroCal PEAQ-ITC Analysis Software.
Figure S5. Compound Ia as a negative control for DSF assay ,T m values of tested compounds and ITC result of […]
47. […] Data are shown as mean ± SEM, n=4. (B) EMSA assay result of compound Ia. (C) Melting curve of METTL16 in the DSF assay treated with different concentrations of Ia. Data are shown as mean ± SD, n=2. (D) T m values of DMSO control and compound Ia, 27,45,46, and 47, assay was conducted with two biological repeats in duplicate. Data are shown as mean ± SEM, n=4. (E) ITC validation of compound 47, using 700 μM METTL16 (1-291) protein to titrate 50 μM compound 47.
(1 picture or pasted object on this page, not shown here)
In general terms: Isothermal titration calorimetry measures the heat released or taken up as one component is titrated into another.

The next assay addresses T2, METTL16 MTD (Homo sapiens, UniProt Q86W50).
T2 construct: METTL16 MTD (1–291) was subcloned to pOPINB plasmid; His tag followed by HRV 3C cleavage site (N, cleaved yes); made in house; host or cells: E. coli Rosetta (DE3)
T2 sequence (Q86W50 1-291): T1 sequence (Q86W50 1-291)
As to the kind of experiment: Michaelis–Menten kinetics study, in vitro methylation assay at different SAM concentrations. In kind it is biochemical. The settings on record: SAM from 75 µM, two-fold dilution.

The test system of assay [1] is MAT2A mRNA splicing in MDA-MB-231 cells. As to the kind of experiment: MAT2A splicing by RT-qPCR, MDA-MB-231. It counts as cell-based, human. The settings on record: 50 μM, 24 h, 45 potassium salt used. How it is done: (§1) MDA-MB-231 cells and A549 cells were seeded into 6-well plates at 70% confluency and cultured overnight. Afterward they were treated with compound 45 potassium salt for 24 h. After the compound treatment, the cell culture medium was discarded and cells were washed with DPBS three times. The total RNA was then purified using RNeasy Mini Kit (Qiagen 74106) following the manufacturer’s protocol.
The reverse transcription was performed by using High-Capacity cDNA Reverse Transcription Kits (Thermo Fisher 4368814) with 500 ng of total RNA. qPCR was performed using PowerUp SYBR Green Master Mix (Thermo Fisher, A25742) with a 10 μL volume. The cycling was performed using Bio-Rad CFX96 Real-Time PCR Detection System following the standard cycling mode (primer Tm ≥ 60 °C) on the manufacturer’s protocol. The p value was calculated using GraphPad Prism software’s one-way ANOVA analysis.
In general terms: Quantitative PCR measures a nucleic acid by following its amplification.

Assay [2] deals with total m^6A level in MDA-MB-231 cells. As to the kind of experiment: Total RNA m6A level by dot blot, MDA-MB-231. In kind it is cell-based, human. The settings on record: 50 μM, 24 h, 45 potassium salt used. On the procedure: as §1
Concentrations of the total RNA were measured by NanoDrop and each sample was calibrated to the same concentration using RNase-free water. RNA samples were heated at 95 °C for 3 min and immediately chilled on ice to disrupt the secondary structures. The total RNA (1 μg) was dropped onto a positively charged nylon membrane (Invitrogen, AM10102). The membrane with RNA side up was immediately transferred to the UVP Cross-linker (Analytik Jena) with […] bulb and cross-linked under the UV light for 5 min two times, then the membrane was washed in TBST (1xTBS with 0.1% Tween 20) for 10 min at room temperature and blocked with 5% skimmed milk in TBST for 1 h at room temperature. The membrane was incubated with the anti-m^6A antibody (Synaptic systems 202003, 1 μg/mL) overnight at 4 °C. […] The membrane was further washed with TBST and detected with the Amersham ECL Prime Western Blotting Detection Reagent. […]

The Kd is the constant that tells how readily two partners part at equilibrium. Low readings indicate higher affinity, high ones lower affinity.

Regarding `O=C1N=C(NS(=O)(=O)c2ccc(C(=O)O)cc2)SC1=C1C(=O)Nc2ccc(Br)cc21` [Compound 47], the Kd at METTL16 MTD (1-291) amounted to 5.12 µM. Besides, at METTL16 MTD, the “inhibition mode with SAM (Michaelis–Menten kinetics)” value is reported as “noncompetitive inhibition mode with SAM”.
Turning to `CN1C(=O)C(=C2SC(NS(=O)(=O)c3ccc(C(=O)O)cc3)=NC2=O)c2cc(Br)ccc21` [Compound 45], the “MAT2A splicing, in words” value in assay [1] was “promoted MAT2A splicing”. Also, the “total m^6A RNA level, in words” value in assay [2] is reported as “increased the total m^6A mRNA levels”.
